Test results reported in patent US20260098008A1, “COVALENT, CHEMOGENETIC ACTIVATORS FOR K2P POTASSIUM CHANNELS AND USES THEREOF” (THE REGENTS OF THE UNIVERSITY OF CALIFORNIA, priority 2022, published 2026).
Positions count from the first letter of the chain named.

What was measured:
Assay type in all cases: cell-based
Q258K K2P4.1 (TRAAK)^CG* = biological target: T1, Q258K K2P4.1 (TRAAK)^CG* (Homo sapiens, UniProt Q9NYG8, Q232K/S92C); assay: TEVC in Xenopus oocytes; details: 20 μM; after 2 min
T1 construct: expressed in transfected cells; host or cells: Xenopus laevis oocytes injected with mRNA
T1 sequence (Q9NYG8 1-393 S92C/Q232K): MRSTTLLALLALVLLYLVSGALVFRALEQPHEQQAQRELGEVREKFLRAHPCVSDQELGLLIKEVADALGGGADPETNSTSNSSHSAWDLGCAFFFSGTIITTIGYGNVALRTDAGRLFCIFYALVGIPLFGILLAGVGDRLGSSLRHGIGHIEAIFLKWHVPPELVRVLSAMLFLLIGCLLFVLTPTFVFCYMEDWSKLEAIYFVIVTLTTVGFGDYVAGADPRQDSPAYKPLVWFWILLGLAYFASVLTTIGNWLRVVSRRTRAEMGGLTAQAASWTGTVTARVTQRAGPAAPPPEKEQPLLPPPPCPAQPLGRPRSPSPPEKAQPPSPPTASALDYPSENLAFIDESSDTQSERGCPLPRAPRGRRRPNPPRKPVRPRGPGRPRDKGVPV
Description: (§1) Mouse K2P2.1 (TREK-1) (Genbank accession number: NP_034737.2), mouse K2P10.1 (TREK-2) (NM_001316665.1), mouse K2P4.1 (TRAAK) (NM_008431.3), human K2P4.1 (TRAAK) (NM_033310.2) and mouse K2P18.1(TRESK) (NM_207261.3) were used for this study. Point mutations were introduced by site-directed mutagenesis using custom primers and confirmed by sequencing before use. For studies using Xenopus oocytes, K2P channels were subcloned into a previously reported pGEMHE/pMO vector (46). For expression in HEK293 cells, mouse K2P2.1 (TREK-1) and mutants were expressed from a previously described pIRES2-EGFP vector in HEK293 cells (46,47). K2P2.1 (TREK-1) tandems were constructed by connecting the open reading frames for the individual subunits with a linker encoding the […] (SEQ ID NO: 19) sequence. Tandems used for HEK293 cells included an N-terminal HA tag ([…] (SEQ ID NO: 20)) on the first subunit.
(§2) Xenopus laevis oocytes were harvested according to UCSF IACUC Protocol AN129690 and digested using collagenase (Worthington Biochemical Corporation, #LS004183, 0.8-1.0 mg/mL) in Ca^21-free ND96 (96 mM NaCl, 2 mM KCl, 3.8 mM MgCl2, 5 mM HEPES pH 7.4) immediately post-harvest, as previously reported (31,33). Oocytes were maintained at 18° C. in ND96 (96 mM NaCl, 2 mM KCl, 1.8 mM CaCl2, 2 mM MgCl2, 5 mM HEPES pH 7.4) supplemented with antibiotics (100 units mL^−1 penicillin, 100 μg mL^−1 streptomycin, 50 μg mL^−1 gentimycin) and used for experiments within one week of harvest.
(§3) Defolliculated stage V-VI oocytes were microinjected with 0.5-36 ng mRNA and currents were recorded within 16-48 h hours of injection.
(§4) For recordings, oocytes were impaled with borosilicate recording microelectrodes (0.4-2.0 MΩ resistance) backfilled with 3 M KCl and were subjected to constant perfusion of ND96 at a rate of 3 ml min^−1. Recording solutions containing K2P activators were prepared immediately prior to use from DMSO stocks (20-100 mM), with final DMSO concentrations of 0.1%. Currents were evoked from a −80 mV holding potential followed by a 300 ms ramp from −150 mV to +50 mV. Data were recorded using a GeneClamp 500B amplifier (MDS Analytical Technologies) controlled by pCLAMP8 software (Molecular Devices), and digitized at 1 kHz using Digidata 1332 Å digitizer (MDS Analytical Technologies). For each recording, control solution (ND96) was perfused over a single oocyte until current was stable before switching to solutions containing the test compounds at various concentrations. Representative traces and dose response plots were generated in GraphPad Prism 9.

[1] = biological target: T2, TREK-1^CG* (K2P2.1 (TREK-1) S131C) (Mus musculus, UniProt P97438, S146C); assay: TEVC in Xenopus oocytes; details: for Reversibility of activation on washout: 20 μM, Xenopus oocytes
T2 construct: expressed in transfected cells; host or cells: Xenopus laevis oocytes injected with mRNA
T2 sequence (P97438 1-411 isoform P97438-2 S131C): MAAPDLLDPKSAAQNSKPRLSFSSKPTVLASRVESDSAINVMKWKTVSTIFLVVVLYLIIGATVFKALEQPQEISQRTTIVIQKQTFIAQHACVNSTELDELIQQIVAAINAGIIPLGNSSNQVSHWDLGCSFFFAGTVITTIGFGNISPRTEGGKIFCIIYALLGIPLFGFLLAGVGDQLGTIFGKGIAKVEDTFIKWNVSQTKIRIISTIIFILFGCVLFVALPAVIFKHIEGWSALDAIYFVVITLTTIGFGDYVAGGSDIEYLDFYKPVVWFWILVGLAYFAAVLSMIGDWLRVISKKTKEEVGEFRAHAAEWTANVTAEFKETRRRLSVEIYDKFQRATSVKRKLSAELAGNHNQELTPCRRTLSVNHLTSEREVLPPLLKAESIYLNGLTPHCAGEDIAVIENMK
Description: as §1, §2, §3, §4

K2P4.1 (TRAAK)^CG* = assay: TEVC in Xenopus oocytes; details: 20 μM
Description: as §1, §2, §3, §4

[2] = biological target: T3, CG*-CG* tandem K2P2.1 (TREK-1) (Mus musculus, UniProt P97438, S146C); assay: TEVC in Xenopus oocytes, tandem channels; details: 20 μM, sequential application
T3 construct: expressed in transfected cells; host or cells: Xenopus laevis oocytes injected with mRNA
T3 sequence (P97438 1-411 isoform P97438-2 S131C) 1: T2 sequence (P97438 1-411 isoform P97438-2 S131C)
T3 sequence (P97438 1-411 isoform P97438-2 S131C) 2: T2 sequence (P97438 1-411 isoform P97438-2 S131C)
Description: as §1, §2, §3, §4

[3] = biological target: T4, WT-WT tandem K2P2.1 (TREK-1) (Mus musculus, UniProt P97438); assay: TEVC in Xenopus oocytes, tandem channels; details: 20 μM, sequential application
T4 construct: expressed in transfected cells; host or cells: Xenopus laevis oocytes injected with mRNA
T4 sequence (P97438 1-411 isoform P97438-2) 1: T2 sequence (P97438 1-411 isoform P97438-2 S131C) with C131S
T4 sequence (P97438 1-411 isoform P97438-2) 2: T2 sequence (P97438 1-411 isoform P97438-2 S131C) with C131S
Description: as §1, §2, §3, §4

[4] = biological target: T5, WT-CG* tandem K2P2.1 (TREK-1) (Mus musculus, UniProt P97438, S146C); assay: TEVC in Xenopus oocytes, tandem channels; details: 20 μM; for Fold-activation (I activator/I control): sequential application, Xenopus oocytes
T5 construct: expressed in transfected cells; host or cells: Xenopus laevis oocytes injected with mRNA
T5 sequence (P97438 1-411 isoform P97438-2): T2 sequence (P97438 1-411 isoform P97438-2 S131C) with C131S
T5 sequence (P97438 1-411 isoform P97438-2 S131C): T2 sequence (P97438 1-411 isoform P97438-2 S131C)
Description: as §1, §2, §3, §4

## O=C(NCc1ccc(Cl)cc1Cl)c1ccc(N2C(=O)C=CC2=O)cc1 [CAT335]
Q258K K2P4.1 (TRAAK)^CG*
  Fold-activation (I activator/I control): 7.4 ± 0.6 fold
[1]
  Reversibility of activation on washout: irreversible
K2P4.1 (TRAAK)^CG*; Xenopus oocytes
  Reversibility of activation: irreversibly activated
K2P4.1 (TRAAK)^CG*; after 2 min
  Fold-activation (I activator/I control): 4.2±0.6 fold
K2P4.1 (TRAAK)^CG*; longer application (6 min) to approach maximal activation
  Fold-activation (I activator/I control): 11±1 fold
[2]
  Fold-activation (I activator/I control): 14.7 ± 0.9 fold
[3]
  Fold-activation (I activator/I control): 1.37 ± 0.07 fold
[4]
  Fold-activation relative to activation of the CG*-CG* homodimer: 60-80%
  Fold-activation (I activator/I control): 11.5 ± 1.1 fold

## CS(=O)(=O)Nc1ccc(C(=O)NCc2ccc(Cl)cc2Cl)cc1 [ML335, reference compound]
Q258K K2P4.1 (TRAAK)^CG*
  Fold-activation (I activator/I control): 3.7±0.3 fold
[1]
  Reversibility of activation on washout: immediate reversal
[1]; TEVC at 0 mV
  Emax (IML335/Icontrol): 9.6±0.8 fold activation
[1]; TEVC at 0 mV, normalized to initial currents
  EC50: 18 ± 4 µM
K2P4.1 (TRAAK)^CG*; after 2 min
  Fold-activation (I activator/I control): 1.9±0.1 fold
[2]
  Fold-activation (I activator/I control): 4.5±0.3 fold
[3]
  Fold-activation (I activator/I control): 6.8 ± 0.5 fold
[4]
  Fold-activation (I activator/I control): 5.6 ± 0.4 fold
